# Measured values published in patent US20240343733A1, “COMPOUNDS FOR TARGETING DEGRADATION OF IRAK4 PROTEINS” (BIOGEN MA INC., priority 2021, published 2024).
# Key:
# IRAK4 = target: T1, IRAK4 (Homo sapiens, UniProt Q9NWZ3); assay: IRAK4 Degradation Assay, HiBiT Method; assay type: cell-based; details: 293T cells expressing HiBiT-tagged IRAK4, 6 hours
# T1 construct: 293Tcells expressing HiBiT-tagged IRAK4 were then added into 384-well plates
# T1 sequence (Q9NWZ3 1-460): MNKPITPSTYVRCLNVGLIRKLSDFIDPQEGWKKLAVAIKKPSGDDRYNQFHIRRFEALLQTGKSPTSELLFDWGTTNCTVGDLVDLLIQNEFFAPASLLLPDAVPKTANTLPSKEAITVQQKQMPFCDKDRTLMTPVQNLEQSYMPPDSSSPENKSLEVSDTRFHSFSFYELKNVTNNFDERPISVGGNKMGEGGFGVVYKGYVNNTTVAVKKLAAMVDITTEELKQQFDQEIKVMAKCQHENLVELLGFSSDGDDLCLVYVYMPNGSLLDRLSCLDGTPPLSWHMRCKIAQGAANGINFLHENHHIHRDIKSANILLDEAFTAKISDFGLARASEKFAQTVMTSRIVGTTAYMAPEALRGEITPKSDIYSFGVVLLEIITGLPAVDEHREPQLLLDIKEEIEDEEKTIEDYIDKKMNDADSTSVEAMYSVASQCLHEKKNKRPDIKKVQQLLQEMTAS
# How it was run: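 Luminescent read-out with Nano-Glo HiBiT lytic reagent after 6 h compound exposure at 37 °C. Cells were HiBiT-IRAK4 knock-in 293T (C-terminal tag), 10,000 per well. Compounds ran as 11-point half-log dilutions from […] highest dose, duplicate wells; DMSO served as negative control.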
# IKZF1 = target: T2, IKZF1 (Homo sapiens, UniProt Q13422); assay: IKZF1 Degradation Assay, HiBiT Method; assay type: cell-based; details: NCIH929 cells expressing HiBiT-tagged IKZF1, 6 hours, top concentration 10 μM
# T2 construct: endogenously expressing IKZF1 with HiBiT fusion tag via CRISPR
# Description: Assay 2. IKZF1 Degradation Assay, HiBiT Method
# Selected compounds of this disclosure were tested in an IKZF1 degradation assay using the HiBiT Method.
# RPMI no-phenol red medium and fetal bovine serum (FBS) were purchased from Gibco (Grand Island, NY, USA). Nano-Glo® HiBiT Lytic Assay System was purchased from Promega (Madison, WI, USA). […] Cell culture flasks and 384-well microplates were acquired from VWR (Radnor, PA, USA).
# IKZF1 degradation was determined based on quantification of luminescent signal using Nano-Glo® HiBiT Lytic Assay kit. […] NCIH929 cells expressing HiBiT-tagged IKZF1 were added into 384-well plates in RPMI medium containing 10% FBS and 0.05 mM 2-mercaptoethanol at a cell density of 15000 cells per well. The plates were kept at 37° C. with 5% CO2 for 6 hours. Cells treated in the absence of the test compound were the negative control and wells containing media only were the positive control. After 6-hour incubation, Nano-Glo® HiBiT Lytic Assay reagents were added to the designated wells. Luminescence was acquired on EnVision® Multilabel Reader (PerkinElmer, Santa Clara, CA, USA).
# T2 sequence (Q96SW2 whole entry partner, the tested form may be a part): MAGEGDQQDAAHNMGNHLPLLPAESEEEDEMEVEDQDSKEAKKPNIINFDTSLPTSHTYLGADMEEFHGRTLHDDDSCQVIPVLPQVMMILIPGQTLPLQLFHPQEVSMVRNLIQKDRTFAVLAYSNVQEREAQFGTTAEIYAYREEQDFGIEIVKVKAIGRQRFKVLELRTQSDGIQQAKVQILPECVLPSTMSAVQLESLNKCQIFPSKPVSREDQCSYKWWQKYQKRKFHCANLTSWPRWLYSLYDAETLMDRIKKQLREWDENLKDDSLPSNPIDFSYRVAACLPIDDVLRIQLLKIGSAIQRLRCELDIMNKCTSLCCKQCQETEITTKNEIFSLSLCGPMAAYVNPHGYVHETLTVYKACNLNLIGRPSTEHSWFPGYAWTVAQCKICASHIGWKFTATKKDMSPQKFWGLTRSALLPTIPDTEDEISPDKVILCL
# T2 sequence (Q16531 whole entry partner, the tested form may be a part): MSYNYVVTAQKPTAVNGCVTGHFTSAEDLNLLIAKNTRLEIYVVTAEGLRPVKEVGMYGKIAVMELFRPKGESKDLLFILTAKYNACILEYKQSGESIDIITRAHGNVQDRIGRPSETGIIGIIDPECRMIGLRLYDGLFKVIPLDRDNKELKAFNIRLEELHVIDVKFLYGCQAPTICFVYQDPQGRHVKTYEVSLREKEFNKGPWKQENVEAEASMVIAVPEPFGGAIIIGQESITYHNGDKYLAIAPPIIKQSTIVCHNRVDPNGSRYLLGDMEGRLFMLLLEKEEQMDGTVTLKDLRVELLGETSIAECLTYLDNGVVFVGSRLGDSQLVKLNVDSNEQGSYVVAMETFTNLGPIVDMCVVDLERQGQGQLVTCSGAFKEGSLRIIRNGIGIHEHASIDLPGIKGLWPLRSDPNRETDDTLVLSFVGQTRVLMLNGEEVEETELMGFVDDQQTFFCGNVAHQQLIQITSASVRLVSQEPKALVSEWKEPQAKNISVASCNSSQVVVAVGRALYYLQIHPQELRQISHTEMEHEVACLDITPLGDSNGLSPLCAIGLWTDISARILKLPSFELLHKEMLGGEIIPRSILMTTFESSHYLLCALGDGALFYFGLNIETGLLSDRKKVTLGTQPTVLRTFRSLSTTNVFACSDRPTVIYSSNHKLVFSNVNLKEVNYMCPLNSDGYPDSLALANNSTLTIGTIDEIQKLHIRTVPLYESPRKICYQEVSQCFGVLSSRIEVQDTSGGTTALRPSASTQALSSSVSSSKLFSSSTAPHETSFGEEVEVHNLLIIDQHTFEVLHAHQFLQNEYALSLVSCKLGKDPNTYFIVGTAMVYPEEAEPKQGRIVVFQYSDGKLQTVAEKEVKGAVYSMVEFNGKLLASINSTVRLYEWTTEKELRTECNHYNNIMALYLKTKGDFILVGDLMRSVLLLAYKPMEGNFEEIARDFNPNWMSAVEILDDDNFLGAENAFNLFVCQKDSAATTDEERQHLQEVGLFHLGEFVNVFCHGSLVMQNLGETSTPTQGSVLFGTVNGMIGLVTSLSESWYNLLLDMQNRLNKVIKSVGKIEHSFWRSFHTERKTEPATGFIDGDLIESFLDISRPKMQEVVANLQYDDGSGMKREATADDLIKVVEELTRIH
# T2 sequence (Q13422 whole entry, the tested form may be a part): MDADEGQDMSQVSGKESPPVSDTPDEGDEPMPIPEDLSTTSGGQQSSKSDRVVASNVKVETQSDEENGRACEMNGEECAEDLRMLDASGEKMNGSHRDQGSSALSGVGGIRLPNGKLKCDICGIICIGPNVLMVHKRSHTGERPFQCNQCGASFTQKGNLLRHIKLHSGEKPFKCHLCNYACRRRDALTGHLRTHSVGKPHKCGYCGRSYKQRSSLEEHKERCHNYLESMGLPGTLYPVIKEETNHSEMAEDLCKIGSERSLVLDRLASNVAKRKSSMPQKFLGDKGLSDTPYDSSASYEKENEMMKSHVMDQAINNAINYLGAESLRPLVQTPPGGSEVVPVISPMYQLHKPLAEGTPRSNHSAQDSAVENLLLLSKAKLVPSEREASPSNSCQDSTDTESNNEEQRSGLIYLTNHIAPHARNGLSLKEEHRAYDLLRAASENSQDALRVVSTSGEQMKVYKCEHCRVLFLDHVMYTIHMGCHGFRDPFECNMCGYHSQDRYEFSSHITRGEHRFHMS
DC50 (IRAK4) [µM],DC50 (IKZF1) [µM],SMILES
< 0.01,> 10,"CC(C)Oc1cc2nn(C3CCN(C(=O)CC4CCN(c5ccc(C6CCC(=O)NC6=O)cn5)CC4)CC3)cc2cc1C(=O)Nc1cnn2cccnc12 (stereo not shown) [Example 147, 2-(1-(2-(1-(5-(2,6-dioxopiperidin-3-yl)pyridin-2-yl)piperidin-4-yl)acetyl)piperidin-4-yl)-6-isopropoxy-N-(pyrazolo[1,5-a]pyrimidin-3-yl)-2H-indazole-5-carboxamide]"
< 0.01,> 10,"CC(C)Oc1cc2nn(C3CCN(C(=O)CN4CCC(c5ccc(NC6CCC(=O)NC6=O)cc5)CC4)CC3)cc2cc1C(=O)Nc1cnn2cccnc12 (stereo not shown) [Example 55, 2-(1-(2-(4-(4-((2,6-dioxopiperidin-3-yl)amino)phenyl)piperidin-1-yl)acetyl)piperidin-4-yl)-6-isopropoxy-N-(pyrazolo[1,5-a]pyrimidin-3-yl)-2H-indazole-5-carboxamide]"
< 0.01,> 10,"CC(C)Oc1cc2nn([C@H]3CC[C@H](CN4CCC(c5ccc(OC6CCC(=O)NC6=O)cc5)CC4)CC3)cc2cc1C(=O)Nc1cnn2cccnc12 (stereo partly shown) [Example 115, 2-((1r,4r)-4-((4-(4-((2,6-dioxopiperidin-3-yl)oxy)phenyl)piperidin-1-yl)methyl)cyclohexyl)-6-isopropoxy-N-(pyrazolo[1,5-a]pyrimidin-3-yl)-2H-indazole-5-carboxamide]"
< 0.01,> 10,"CC(C)Oc1cc2nn([C@H]3CC[C@H](CN4CCC(c5ccc6c(c5)n(C)c(=O)n6C5CCC(=O)NC5=O)C(F)(F)C4)CC3)cc2cc1C(=O)Nc1cccn([C@H]2C[C@H]2F)c1=O (stereo partly drawn) [Example 122, 2-((1r,4S)-4-((4-(1-(2,6-dioxopiperidin-3-yl)-3-methyl-2-oxo-2,3-dihydro-1H-benzo[d]imidazol-5-yl)-3,3-difluoropiperidin-1-yl)methyl)cyclohexyl)-N-(1-((1S,2R)-2-fluorocyclopropyl)-2-oxo-1,2-dihydropyridin-3-yl)-6-isopropoxy-2H-indazole-5-carboxamide]"
< 0.01,> 10,"CC(C)Oc1cc2nn([C@H]3CC[C@H](CN4CCC(c5ccc6c(c5)n(C)c(=O)n6C5CCC(=O)NC5=O)C(F)(F)C4)CC3)cc2cc1C(=O)Nc1cnn2cccnc12 (stereo partly shown) [Example 123, 2-((1r,4r)-4-((4-(1-(2,6-dioxopiperidin-3-yl)-3-methyl-2-oxo-2,3-dihydro-1H-benzo[d]imidazol-5-yl)-3,3-difluoropiperidin-1-yl)methyl)cyclohexyl)-6-isopropoxy-N-(pyrazolo[1,5-a]pyrimidin-3-yl)-2H-indazole-5-carboxamide]"

# Continued, compound first:
SMILES,DC50 (IRAK4) [µM],DC50 (IKZF1) [µM]
"CC(C)Oc1cc2nc([C@H]3CC[C@H](CN4CCN(c5ccc6c(N7CCC(=O)NC7=O)nn(C)c6c5)CC4)CC3)cn2cc1C(=O)Nc1cccc(C(F)F)n1 [Example 41, N-[6-(difluoromethyl)-2-pyridyl]-2-[4-[[4-[3-(2,4-dioxohexahydropyrimidin-1-yl)-1-methyl-indazol-6-yl]piperazin-1-yl]methyl]cyclohexyl]-7-isopropoxy-imidazo[1,2-a]pyridine-6-carboxamide]",0.01 to 0.1,> 10
"CC(C)Oc1cc2nc(C3CCN(C(=O)CC4CCN(c5ncc(NC6CCC(=O)NC6=O)cc5F)CC4)CC3)cn2cc1C(=O)Nc1cccc(C(F)F)n1 (stereo not shown) [Example 81, N-[6-(difluoromethyl)-2-pyridyl]-2-[1-[2-[1-[5-[(2,6-dioxo-3-piperidyl)amino]-3-fluoro-2-pyridyl]-4-piperidyl]acetyl]-4-piperidyl]-7-isopropoxy-imidazo[1,2-a]pyridine-6-carboxamide]",0.01 to 0.1,> 10
"CC(C)Oc1cc2nc(C3CCN(CC(=O)N4CCC(c5ccc(C6(F)CCC(=O)NC6=O)cc5)CC4)CC3)cn2cc1C(=O)Nc1cnn2cccnc12 (stereo not shown) [Example 98, 2-[1-[2-[4-[4-(3-fluoro-2,6-dioxo-3-piperidyl)phenyl]-1-piperidyl]-2-oxo-ethyl]-4-piperidyl]-7-isopropoxy-N-pyrazolo[1,5-a]pyrimidin-3-yl-imidazo[1,2-a]pyridine-6-carboxamide]",0.01 to 0.1,> 10
"CC(C)Oc1cc2nc(C3CCN(C(=O)CN4CCC(c5ccc(C6CCC(=O)NC6=O)cc5)CC4)CC3)cn2cc1C(=O)Nc1cccc(C(F)F)n1 (stereo not shown) [Example 68, N-[6-(difluoromethyl)-2-pyridyl]-2-[1-[2-[4-[4-(2,6-dioxo-3-piperidyl)phenyl]-1-piperidyl]acetyl]-4-piperidyl]-7-isopropoxy-imidazo[1,2-a]pyridine-6-carboxamide]",0.01 to 0.1,> 10
"CC(C)Oc1cc2nc([C@H]3CC[C@H](CN4CCC(c5ccc(OC6CCC(=O)NC6=O)cc5)CC4)CC3)cn2cc1C(=O)Nc1cnn2cccnc12 (stereo partly shown) [Example 50, 2-[4-[[4-[4-[(2,6-dioxo-3-piperidyl)oxy]phenyl]-1-piperidyl]methyl]cyclohexyl]-7-isopropoxy-N-pyrazolo[1,5-a]pyrimidin-3-yl-imidazo[1,2-a]pyridine-6-carboxamide]",< 0.01,> 10
"CC(C)Oc1cc2nc(C3CCN(C(=O)CC4(O)CCN(c5cc(F)c(NC6CCC(=O)NC6=O)cc5F)CC4)CC3)cn2cc1C(=O)Nc1cccc(C(F)F)n1 (stereo not shown) [Example 70, N-[6-(difluoromethyl)-2-pyridyl]-2-[1-[2-[1-[4-[(2,6-dioxo-3-piperidyl)amino]-2,5-difluoro-phenyl]-4-hydroxy-4-piperidyl]acetyl]-4-piperidyl]-7-isopropoxy-imidazo[1,2-a]pyridine-6-carboxamide]",< 0.01,> 10
"CC(C)Oc1cc2nc(C3CCN(CC(=O)N4CCC(c5ccc(NC6CCC(=O)NC6=O)cc5)CC4)CC3)cn2cc1C(=O)Nc1cccc(C(F)F)n1 (stereo not shown) [Example 105, N-[6-(difluoromethyl)-2-pyridyl]-2-[1-[2-[4-[4-[(2,6-dioxo-3-piperidyl)amino]phenyl]-1-piperidyl]-2-oxo-ethyl]-4-piperidyl]-7-isopropoxy-imidazo[1,2-a]pyridine-6-carboxamide]",0.01 to 0.1,> 10
"CC(C)Oc1cc2nc(C3CCC(CN4CCC(c5ccc(C6CCC(=O)NC6=O)cc5F)CC4)CC3)cn2cc1C(=O)Nc1cnn2cccnc12 (stereo not shown) [Example 47, 2-[4-[[4-[4-(2,6-dioxo-3-piperidyl)-2-fluoro-phenyl]-1-piperidyl]methyl]cyclohexyl]-7-isopropoxy-N-pyrazolo[1,5-a]pyrimidin-3-yl-imidazo[1,2-a]pyridine-6-carboxamide]",< 0.01,> 10
"CC(C)Oc1cc2nn(C3CCN(C(=O)CC4(O)CCN(c5cnc6c(c5)n(C)c(=O)n6C5CCC(=O)NC5=O)CC4)CC3)cc2cc1C(=O)Nc1cccn([C@H]2C[C@H]2F)c1=O (stereo partly drawn) [Example 153, 2-(1-(2-(1-(3-(2,6-dioxopiperidin-3-yl)-1-methyl-2-oxo-2,3-dihydro-1H-imidazo[4,5-b]pyridin-6-yl)-4-hydroxypiperidin-4-yl)acetyl)piperidin-4-yl)-N-(1-((1S,2R)-2-fluorocyclopropyl)-2-oxo-1,2-dihydropyridin-3-yl)-6-isopropoxy-2H-indazole-5-carboxamide]",0.01 to 0.1,> 10
